Results reported in patent publication US12344862B2, “Human intestinal epithelium model and method for preparing same” (KOREA RESEARCH INSTITUTE OF BIOSCIENCE AND BIOTECHNOLOGY, priority 2020, dated 2025).

B1: R-spondin 1: secreted protein encoded by Rspo1 gene, can promote Wnt/β catenin signals; agonist of Wnt signaling (protein, UniProt Q2MKA7 21-263, looked up)
R-spondin-1: SRGIKGKRQRRISAEGSQACAKGCELCSEVNGCLKCSPKLFILLERNDIRQVGVCLPSCPPGYFDARNPDMNKCIKCKIEHCEACFSHNFCTKCKEGLYLHKGRCYPACPEGSSAANGTMECSSPAQCEMSEWSPWGPCSKKQQLCGFRRGSEERTRRVLHAPVGDHAACSDTKETRRCTVRRVPCPEGQKRRKGGQGRRENANRNLARKESKEAGAGSRRRKGQQQQQQQGTVGPLTSAGPA

Legend:
[1] = tested on: Wnt pathway and the Notch pathway; assay: qPCR of ATOH1, HES1, AXIN2, CTNNB1 during differentiation of hIEC progenitors into functional hIECs; format: cell-based, human; conditions: 2 μM Wnt-059 and 1 mM valproic acid together in hIEC differentiation medium 2; functional vs immature hIECs; FIG. 7
Description: To identify effects of Wnt-059 and valproic acid, which belong to the components of the hIEC differentiation medium 2 in Example 2, on the Wnt pathway and the Notch pathway during differentiation of hIEC progenitors into functional hIECs, expression levels of ATOH1, HES1, AXN2, and CTNNB1 genes in human small intestine (hSI) tissue, immature hIECs, and functional hIECs were checked through qPCR analysis. Here, inactivation of the Wnt pathway and activation of the Notch pathway inhibited differentiation of ISCs into secretory cells. qPCR was performed in the same manner as in Experimental Example 1, and the primers used are shown in Table 3 below.

in vitro = in vitro ADME, human; conditions: human
Procedure: (§1) The cells were prepared in the same manner as in Experimental Example 6.1. The functional hIECs and the Caco-2 cell line were washed 3 times with a transport buffer. […] The concentration of each compound in the sample was analyzed using LC-MS/MS. The apparent permeability coefficient was calculated according to the following equation. [formula] In the equation, dQ/dt, A, and C0 represent a transport rate, a surface area of the insert, and an initial concentration of the compound in the donor compartment, respectively. Chromatographic quantification of each compound was performed using an LC-tandem mass spectrometry system equipped with Shimadzu Prominence UPLC system (Shimadzu, Kyoto, Japan) and API 2000 QTRAP mass spectrometer (Applied Biosystems, Foster City, CA, USA). […] Then, an aliquot (10 μl) of the supernatant was injected directly into the LC-MS/MS system. Separation was performed using a Waters XTerra MS C18 column (2.1×50 mm, 5 μm, Milford, MA, USA) with a concentration gradient of 0.1% formic acid in acetonitrile and 0.1% formic acid in water at a flow rate of 0.4 ml/min. Transitions were made as follows to detect the analyte: […]

functional hIECs = assay: in vitro; format: in vitro ADME, human; conditions: Caco-2
Procedure: as §1

Caco-2 cell line = assay: in vitro; format: in vitro ADME, human
Procedure: as §1

hPSCs = assay: qPCR of intestinal epithelial marker genes during differentiation of hPSCs into hIEC progenitors; format: cell-based, human; conditions: component of hIEC differentiation medium 1; FIG. 2
Procedure: In Example 1, to identify effects, on differentiation of the hPSCs into the hIEC progenitors, of R-spondin 1, which is an agonist of Wnt signaling, and insulin in composition of the hIEC differentiation medium 1, expression levels of marker genes related to intestinal epithelial cells were checked through qPCR analysis. Specifically, total RNA and cDNA were prepared using RNeasy kit (Qiagen) and Superscript IV cDNA synthesis kit (Thermo Fisher Scientific Inc.), respectively. qPCR was performed using a 7500 Fast real-time PCR system (Applied Biosystems, Foster City, CA, USA).

| Molecule | Papp A→B at 2 h (in vitro) | Papp A→B at 2 h (in vitro; Caco-2) | also measured |
| --- | --- | --- | --- |
| CCCC(CCC)C(=O)O [valproic acid] | – | – | effect on Wnt pathway and Notch pathway (qPCR of ATOH1, AXIN2, CTNNB1, HES1) [1]: inhibited the Wnt pathway and activated the Notch pathway |
| O=C(O)Cc1ccccc1Nc1c(Cl)cccc1Cl [diclofenac] | 9.82 ± 0.04 ×10⁻⁶ cm/s | 36.2 ± 1.49 ×10⁻⁶ cm/s | – |
| CNC(=C[N+](=O)[O-])NCCSCc1ccc(CN(C)C)o1 [ranitidine] | 6.98 ± 0.66 ×10⁻⁶ cm/s | 0.98 ± 0.02 ×10⁻⁶ cm/s | – |
| COCCc1ccc(OCC(O)CNC(C)C)cc1 (centres unmarked) [metoprolol] | 11.1 ± 1.15 ×10⁻⁶ cm/s | 36.5 ± 1.09 ×10⁻⁶ cm/s | – |
| Cc1cc(-c2ccc(CC(=O)Nc3ccc(-c4cccnc4)cc3)cc2)ccn1 [Wnt-059, Wnt C-59] | – | – | effect on Wnt pathway and Notch pathway (qPCR of ATOH1, AXIN2, CTNNB1, HES1) [1]: inhibited the Wnt pathway and activated the Notch pathway |
| CC(C)NCC(O)COc1cccc2ccccc12 (centres unmarked) [propranolol] | 11 ± 1.28 ×10⁻⁶ cm/s | 32.3 ± 2.61 ×10⁻⁶ cm/s | Fintestine (fraction absorbed in the human intestine) estimated from Papp (functional hIECs): 0.78; Fintestine (fraction absorbed in the human intestine) estimated from Papp (Caco-2 cell line): 0.98 |
| insulin: hormone secreted from beta cells of the islet of Langerhans; component of hIEC differentiation medium 1 | – | – | effect on expression of intestinal epithelial marker genes (qPCR) (hPSCs): increased expression of VIL1 and ANPEP |
| B1 | – | – | effect on expression of intestinal epithelial marker genes (qPCR) (hPSCs): increased expression of markers of major cell types in the intestinal epithelium |
